Measured values taken from US20100311084A1, “METHODS FOR PREDICTING A PATIENT'S RESPONSE TO EGFR INHIBITORS” (PRECISION THERAPEUTICS, INC., priority 2008, published 2010).
Where a name gives a salt, the structure may show the parent alone.

How the values were obtained:
[1] = system: BT474; assay: Chemoresponse assay, lapatinib, BT474; assay type: cell-based
Procedure: (§1) The chemoresponse assay for lapatinib was developed using four different immortalized cell lines (SK-OV3, BT474, MDA-MB-231, MCF7). In addition to cell lines, the chemoresponse assay was also performed on 55 primary cultures of breast carcinomas. […] Cell lines and specimens were treated with a 10 dose concentration range of lapatinib for 72 hours and stained with DAPI; remaining live cells were counted on an inverted fluorescent microscope.

[2] = system: MDA-MB-231; assay: Chemoresponse assay, lapatinib, MDA-MB-231; assay type: cell-based; settings: 72 hours
Procedure: as §1

[3] = system: MCF7; assay: Chemoresponse assay, lapatinib, MCF7; assay type: cell-based; settings: 72 hours
Procedure: as §1

[4] = system: SK-OV3; assay: Chemoresponse assay, lapatinib, SK-OV3; assay type: cell-based
Procedure: as §1

[5] = system: primary cultures of breast carcinomas; assay: Chemoresponse assay, lapatinib, primary cultures of breast carcinomas; assay type: cell-based, human; settings: 55 primary breast cultures; 72 hours
Procedure: as §1

[6] = system: H292; assay: ChemoFx chemoresponse assay, erlotinib, H292 cell line; assay type: cell-based, human; settings: Log EC50 by dose number, mean of 3 assays
Procedure: (§2) Three human lung tumor-derived immortalized cell lines were tested in this study: H292, H358, and Calu3 (American Type Culture Collection, Manassas, Va.). These cell lines were seeded at 40,000 cells in T25 flasks (PGC Scientifics, Frederick, Md.) and allowed to grow for one week to approximately 90% confluence.
(§3) Cell lines and tissue specimens were processed and tested with the ChemoFx® assay as described elsewhere. Also see, U.S. Pat. Nos. 5,728,541, 6,900,027, 6,887,680, 6,933,129, 6,416,967, 7,112,415, and 7,314,731; and U.S. application Ser. Nos. 10/399,563, 11/504,098, 11/595,967, 11/713,662, and 11/785,984, all of which are hereby incorporated by reference in their entireties, and especially with regard to tissue processing and cell culturing techniques, and assays. Ten doses of erlotinib were prepared by serial dilution. The same 10-dose concentration range was used for the cell lines and the tissue specimens. For each dose, a cytotoxic index (CI) was calculated according to the following formula: CI=Mean cell countdose x/mean cell countcontrol, which represents the ratio of cells killed as a result of the treatment. Cell counts were the average of 3 replicates at each dose for primary cultures and 9 replicates at each dose for immortalized cell lines. […] Adjusted areas under the curve (aAUC) were calculated for each dose-response curve as previously described.

[7] = system: Calu-3; assay: ChemoFx chemoresponse assay, erlotinib, Calu-3 cell line; assay type: cell-based, human; settings: Calu3; Log EC50 by dose number, mean of 3 assays
Procedure: as §2, §3

[8] = system: H358; assay: ChemoFx chemoresponse assay, erlotinib, H358 cell line; assay type: cell-based, human; settings: Log EC50 by dose number, mean of 3 assays
Procedure: as §2, §3

[9] = system: primary cultures of lung cancer; assay: ChemoFx chemoresponse assay, erlotinib, primary cultures of lung cancer; assay type: cell-based, human; settings: 34 lung cancer tumors; 72-hour treatment
From the text: Patient tumor specimens: Primary cell cultures were established using tumor specimens procured for research purposes from the following sources: National Disease Research Interchange (Philadelphia, Pa.), Cooperative Human Tissue Network (Philadelphia, Pa.), Forbes Regional Hospital (Monroeville, Pa.), Jameson Hospital (New Castle, Pa.), Saint Barnabas Medical Center (Livingston, N.J.), Hamot Medical Center (Erie, Pa.), and Windber Research Institute (Windber, Pa.). The tumors were removed from the patient at the time of surgery, placed in the supplied 125-mL bottle containing sterile McCoy's shipping medium (Mediatech, Herndon, Va.), and shipped overnight to Precision Therapeutics, Inc. laboratories (Pittsburgh, Pa.).
Cell lines and tissue specimens were processed and tested with the ChemoFx® assay as described elsewhere. Also see, U.S. Pat. Nos. 5,728,541, 6,900,027, 6,887,680, 6,933,129, 6,416,967, 7,112,415, and 7,314,731; and U.S. application Ser. Nos. 10/399,563, 11/504,098, 11/595,967, 11/713,662, and 11/785,984, all of which are hereby incorporated by reference in their entireties, and especially with regard to tissue processing and cell culturing techniques, and assays. Ten doses of erlotinib were prepared by serial dilution. The same 10-dose concentration range was used for the cell lines and the tissue specimens. For each dose, a cytotoxic index (CI) was calculated according to the following formula: CI=Mean cell countdose x/mean cell countcontrol, which represents the ratio of cells killed as a result of the treatment. Cell counts were the average of 3 replicates at each dose for primary cultures and 9 replicates at each dose for immortalized cell lines. Dose response curves were generated using the CI at each dose. Adjusted areas under the curve (aAUC) were calculated for each dose-response curve as previously described.

[10] = system: H292 xenograft; settings: tumor growth inhibition; cited from earlier work
[11] = system: Calu3 xenograft; settings: tumor growth inhibition; cited from earlier work
[12] = system: H358 xenograft; settings: tumor growth inhibition; cited from earlier work

Compound | response to lapatinib treatment ([1]; 72 hours) | EC50 ([1]; Homo sapiens, BT-474, 72 hours) [µM] | response to lapatinib treatment [2] | EC50 ([2]; Homo sapiens) [µM] | response to lapatinib treatment [3] | EC50 ([3]; Homo sapiens) [µM] | response to lapatinib treatment ([4]; 72 hours) | EC50 ([4]; Homo sapiens, SK-OV-3, 72 hours) [µM] | specimens non-responsive to lapatinib [5] [%] | specimens responsive to lapatinib [5] [%] | specimens with intermediate response to lapatinib [5] [%] | Mean (Log EC50*) [6] [dose number] | Mean (Log EC50*) [7] [dose number] | Mean (Log EC50*) [8] [dose number] | specimens Intermediate Responsive to erlotinib [9] [%] | specimens Non-Responsive to erlotinib [9] [%] | specimens Responsive to erlotinib [9] [%] | Xenograft TGI (%) [22] [10] [%] | Xenograft TGI (%) [22] [11] [%] | Xenograft TGI (%) [22] [12] [%]
CS(=O)(=O)CCNCc1ccc(-c2ccc3ncnc(Nc4ccc(OCc5cccc(F)c5)c(Cl)c4)c3c2)o1 [lapatinib, Lapatinib] | responsive | ~10 | responsive | ~10 | responsive | ~10 | responsive | ~10 | 76 | 9 | 15 | – | – | – | – | – | – | – | – | –
C#Cc1cccc(Nc2ncnc3cc(OCCOC)c(OCCOC)cc23)c1 [erlotinib, Erlotinib hydrochloride] | – | – | – | – | – | – | – | – | – | – | – | 4.731 | 6.715 | 5.925 | 20.6 | 70.6 | 8.8 | 85 | 67 | 25
